Laboratory results as given in US8242251B2, “Unsymmetrical cyanine dimer compounds and their application” (Life Technologies Corporation, priority 2003, dated 2012).

Assays:
[1] = tested on: RNA versus DNA; experiment: Screening of fluorescence properties and relative fluorescence enhancement with RNA versus DNA (Table 3); assay type: binding; settings: for Fluorescence Enhancement Ratio (RNA/DNA): fluorescence enhancement when associated with RNA to that when associated with DNA
[2] = tested on: Bovine pulmonary arterial endothelial cells; experiment: Nucleic acid binding after RNase and DNase on methanol-fixed eukaryotic cells (Example 38); assay type: cell-based
Description: (§1) Bovine pulmonary arterial endothelial cells were grown in media for one day after plating and then fixed ten minutes in 100% methanol at −20° C. Cells were washed 3×5 minutes in PBT (0.05M phosphate-buffered saline (PBS) containing 0.1% Triton X-100) and then treated with RNase (from Roche, at 1:500 dilution) or DNase (from Promega, at 1:100 dilution) for 2 hours at 37° C. Cells were washed again for 3×5 minutes in PBT and then labeled with Compound 6 at 687 nM concentration for 20 minutes. Cells were washed 3×10 minutes in PBS and mounted on microscope slides in ProLong antifade mounting medium. After the mountant had hardened, slides were examined on a Nikon Eclipse 800 upright fluorescent microscope and imaged with a FITC filter set, a Princeton Instrument MicroMax cooled CCD camera, and Universal Imaging MetaMorph imaging software. […] See, FIG. 4.

[3] = tested on: Gram-positive (Staphylococcus aureus) and Gram-negative (Eshcerichia coli) bacteria; experiment: Rifampicin-depletion of bacterial RNA, flow cytometry and microplate reader (Example 37); assay type: cell-based; settings: for fluorescent signal of rifampicin treated versus untreated bacteria: 25 μg/mL rifampicin one hour, compound 0.25, 0.5 or 1 μM, 10-15 minutes
Description: Gram-positive (Staphylococcus aureus) and Gram-negative (Eshcerichia coli) bacteria in growth medium were treated with 25 μg/mL rifampicin for one hour. Treated and untreated bacteria were counted, diluted to 1×10^7 bacteria/mL in 0.85% NaCl, and 1 mL aliquots incubated with 0.25 μM, 0.5 μM, or 1 μM Compound 6 or Compound 9 for 10-15 minutes protected from light. The samples were analyzed by flow cytometry and then 100 μL volumes were transferred to a microplate in triplicate and analyzed by a microplate reader. The fluorescence intensity was corrected against the dye in solution, which was weakly fluorescent.

[4] = tested on: Bovine pulmonary arterial endothelial cells; experiment: Nucleic acid binding on RNase and DNase treated formaldehyde-fixed eukaryotic cells (Example 39); assay type: cell-based; settings: Compound 6 687 nM, Compound 19 1 μM
Description: as §1, with “fixed fifteen” for “fixed ten”, “in 4% paraformaldehyde.” for “in 100% methanol at −20° C.”, “1:100 dilution), or both” for “1:100 dilution)”, “concentration or Compound 19 at 1 μM concentration in PBS” for “concentration”, “mounting medium (Molecular Probes, Inc.).” for “mounting medium.”, “FIG. 5.” for “FIG. 4.”

[5] = tested on: Bovine pulmonary arterial endothelial cells; experiment: Cell permeability and nucleic acid label pattern with a concentration series in live cells (Example 43); assay type: cell-based
Description: Bovine pulmonary arterial endothelial cells were grown in media for one day after plating on coverslips, then labeled with 50 nM MitoTracker Red CMXRos (Molecular Probes, Inc., M7512) in Hank's balanced salt solution (HBSS) with HEPES for general mitochondrial labeling. After washing in HBSS, cells were then labeled with Compound 1 at various concentrations ranging from 100 nM up to 10 μM in media for 20 minutes at 37°. Cells were washed well with HBSS. Coverslips were examined mounted in warm HBSS on a Nikon Eclipse 800 upright fluorescent microscope and imaged with a FITC filter set, a Princeton Instruments MicroMax cooled CCD camera, and Universal Imaging MetaMorph imaging software. […] The mtDNA signal was localized within mitochondria, as evidenced by MitoTracker Red labeling.

[6] = tested on: Bovine pulmonary arterial endothelial cells; experiment: Nucleic acid binding in live eukaryotic cells followed by fixing of cells (Example 40); assay type: cell-based
Description: Bovine pulmonary arterial endothelial cells were grown in media for one day after plating and then labeled before fixing with 687 nM Compound 6 for 20 minutes. Some cells were rinsed in media and separated for live imaging. The other cells were rinsed twice with media and then fixed in 4% paraformaldehyde for 15 minutes at room temperature, 0.5% glutaraldehyde for 5 minutes at room temperature, or 100% methanol for 10 minutes at −20° C. Cells were washed 3×10 minutes in phosphate-buffered saline and mounted on microscope slides in ProLong antifade mounting medium (Molecular Probes, Inc.). After the mountant had hardened, slides were examined on a Nikon Eclipse 800 upright fluorescent microscope and imaged with a FITC filter set, a Princeton Instrument MicroMax cooled CCD camera, and Universal Imaging MetaMorph imaging software. […] Fixation with either paraformaldehyde or glutaraldehyde removed all mitochondrial labeling. Nucleolar label remained, but nuclear label increased. […] Methanol-fixation had good nucleolar labeling, with only a slight increase in nuclear labeling. All mitochondrial labeling was removed. Cytoplasmic label increased slightly, but not nearly to the extent seen with other fixation. Results generally indicate that methanol-fixation is the recommended fixation technique.

[7] = tested on: Bovine pulmonary arterial endothelial cells; experiment: Nucleic acid binding in methanol-fixed eukaryotic cells (Example 42); assay type: cell-based
Description: Bovine pulmonary arterial endothelial cells were grown in media for one day after plating on coverslips and then fixed 10 minutes in −20° C. 100% methanol. Cells were washed 3×5 minutes 50 mM phosphate buffered saline (PBS), pH 7.3. Cells were labeled with Compound 11 at 5 μM, 1 μM, or 500 nM concentration in PBS for 20 minutes, washed 3×10 minutes in PBS, and mounted in ProLong antifade mountant (Molecular Probes, Inc.). Cells were labeled with Compound 6 at 500 nM in PBS for 20 minutes. After the mountant had hardened, slides were examined on a Nikon Eclipse 800 upright fluorescent microscope and imaged with a blue-green filter set, a Princeton Instruments MicroMax cooled CCD camera, and Universal Imaging MetaMorph imaging software. Comparison of emission wavelength was made using a Zeiss 510 confocal microscope utilizing a META spectral unmixing system. […] Optimal labeling for both compounds appeared to be about […]. […] See, FIG. 6.

[8] = methanol fixed cells, cytoplasm, nucleus and nucleolus (FIG. 4)
[9] = methanol-fixed, compound 687 nM
[10] = methanol-fixed, compound 687 nM, by eye

In the case of C[n+]1c(/C=C2\C=C(N3CCNCCN(C4=C/C(=C\c5sc6ccccc6[n+]5C)c5ccccc5N4c4ccccc4)CCNCC3)N(c3ccccc3)c3ccccc32)sc2ccccc21.[Cl-].[Cl-] [Compound 15], the “Fluorescence Enhancement Ratio (DNA/RNA)” value ([1]; fluorescence enhancement when associated with DNA to that when associated with RNA) is reported as 3.7.
N=C(N)c1ccc(-c2cc3ccc(C(=N)N)cc3[nH]2)cc1 [DAPI, reference compound] was tested, and the “label intensity of DNA label control after nuclease treatment” value ([2]; control to test the activity of the DNase, printed as treated with RNase) was “significant decline in label intensity”.
For CN1/C(=C\c2ccn(-c3ccccc3)/c(=N\N3CCN(/N=c4/cc(/C=C5/Sc6ccccc6N5C)c5ccccc5n4-c4ccccc4)CC3)c2)Sc2ccccc21 [Compound 25], the “Fluorescence Enhancement Ratio (RNA/DNA)” value [1] was 5.6.
In the case of CN1/C(=C\c2c/c(=N/N3CCN(/N=c4/cc(/C=C5/Sc6ccccc6N5C)c5ccccc5n4-c4ccccc4)CC3)n(-c3ccccc3)c3ccccc23)Sc2ccccc21 [Compound 9], the “Fluorescence Enhancement Ratio (RNA/DNA)” value [1] is reported as 1.7 and the “fluorescent signal of rifampicin treated versus untreated bacteria” value [3] is reported as “decrease in fluorescent signal after removal of mRNA”.
In the case of COc1ccc2c(c1)N(c1ccccc1)C(N1CCN(C3=C/C(=C\c4sc5ccccc5[n+]4C)c4ccc(OC)cc4N3c3ccccc3)CC1)=C/C2=C\c1sc2ccccc2[n+]1C.[I-].[I-] [Compound 19], the “Fluorescence Enhancement Ratio (RNA/DNA)” value [1] is reported as 4.9, the “cytoplasmic label after DNase” value [4] is reported as “not reduced at all” and the “cytoplasmic label after RNase” value [4] is reported as “not reduced at all”. For the same compound, the “labeling of nucleoli after RNase” value [4] was “eliminated”, the “nuclear labeling after DNase” value [4] was “not DNase” and the “nuclear labeling after RNase” value [4] was “significantly reduced with RNase”. The “nucleolar intensity after DNase” value [4] was “significantly reduced”.
For C[n+]1c(/C=C2\C=C(N(CCC[N+](C)(C)C)CCC[N+](C)(C)C)N(CCCCCCCCCCN3C(N(CCC[N+](C)(C)C)CCC[N+](C)(C)C)=C/C(=C\c4sc5ccccc5[n+]4C)c4ccccc43)c3ccccc32)sc2ccccc21.Cl.Cl [Compound 13], the “Fluorescence Enhancement Ratio (RNA/DNA)” value [1] was 2.5.
With C[n+]1c(/C=C2\C=C(SCCCCCCCCCSC3=C/C(=C\c4sc5ccccc5[n+]4C)c4ccccc4N3c3ccccc3)N(c3ccccc3)c3ccccc32)sc2ccccc21 [Compound 1] the “Fluorescence Enhancement Ratio (RNA/DNA)” value [1] was 1.0, the “staining pattern at 1 μM” value ([5]; 20 minutes at 37°) was “nuclear labeling was seen as well as mtDNA” and the “staining pattern at 3 μM or higher” value ([5]; 20 minutes at 37°) was “mtDNA labeling was lost, replaced with ubiquitous cytoplasmic labeling and strong nuclear labeling”. For the same compound, the “staining pattern at 100 nM to 500 nM” value ([5]; 20 minutes at 37°, MitoTracker Red co-label) was “mitochondrial DNA (mtDNA), with no nuclear label, or cytoplasmic background” and the “concentration at which mitochondrial morphology was disrupted” value ([5]; as evidenced with MitoTracker Red) was at least 3 μM.
For C[n+]1c(/C=C2\C=C(Sc3nnc(SC4=C/C(=C\c5sc6ccccc6[n+]5C)c5ccccc5N4c4ccccc4)s3)N(c3ccccc3)c3ccccc32)sc2ccccc21.[Cl-].[Cl-] [Compound 7], the “Fluorescence Enhancement Ratio (RNA/DNA)” value [1] was 2.3.
CN1/C(=C\c2c/c(=N/C3CCC(/N=c4/cc(/C=C5/Sc6ccccc6N5C)c5ccccc5n4-c4ccccc4)CC3)n(-c3ccccc3)c3ccccc23)Sc2ccccc21 (centres unmarked) [Compound 8] was tested, and the “Fluorescence Enhancement Ratio (RNA/DNA)” value [1] was 4.9.
C[n+]1c(/C=C2\C=C(N3CCN(C4=C/C(=C\c5sc6ccccc6[n+]5C)c5ccccc5N4c4ccccc4)CC3)N(c3ccccc3)c3ccccc32)sc2ccccc21.[Cl-].[Cl-] [Compound 6] was tested, and the “Fluorescence Enhancement Ratio (RNA/DNA)” value [1] was 7.0, the “fluorescent signal of rifampicin treated versus untreated bacteria” value [3] was “decrease in fluorescent signal after removal of mRNA” and the “signal intensity on RNA versus DNA in S. aureus cells with and without rifampicin” value ([3]; S. aureus, compound 0.25, 0.5 and 1 μM) was “stronger signal intensity when bound to RNA”. For the same compound, the “signal intensity of DNase treated cells” value [2, 8] was “no decrease in signal intensity”, the “signal intensity of RNase treated cells” value [2, 8] was “significant reduction in signal intensity” and the “nuclear labeling after DNase” value [2, 9] was “not DNase”. The “nuclear labeling after RNase” value [2, 9] was “significantly reduced by RNase”, the “nucleolar intensity after DNase” value ([2]; methanol-fixed, compound 687 nM, DNase 2 hours 37° C.) was “did not significantly affect” and the “labeling of nucleoli after RNase” value ([2]; methanol-fixed, compound 687 nM, RNase 2 hours 37° C.) was “eliminated”. For the same compound, the “cytoplasmic label after DNase” value [2, 10] was “not DNase”, the “cytoplasmic label after RNase” value [2, 10] was “reduced by RNase” and the “cytoplasmic label after DNase” value [4] was “significantly reduced by both RNase and DNase”. The “cytoplasmic label after RNase” value [4] was “significantly reduced by both RNase and DNase”, the “labeling of nucleoli after RNase” value [4] was “eliminated” and the “nuclear labeling after DNase” value [4] was “significantly reduced by both RNase and DNase”. The “nuclear labeling after RNase” value [4] was “significantly reduced by both RNase and DNase”, the “nucleolar intensity after DNase” value [4] was “significantly reduced” and the “labeling pattern in live cells” value ([6]; 687 nM, 20 minutes, live imaging) was “strong nucleolar label, strong punctate labeling in mitochondria consistent with mtDNA, and dimmer ubiquitous mitochondrial labeling”. For the same compound, the “labeling pattern after fixation with paraformaldehyde or glutaraldehyde” value ([6]; labeled live at 687 nM, then 4% paraformaldehyde or 0.5% glutaraldehyde) was “removed all mitochondrial labeling. Nucleolar label remained, but nuclear label increased. General cytoplasmic labeling also increased significantly”, the “labeling pattern after methanol-fixation” value ([6]; labeled live at 687 nM, then 100% methanol 10 minutes −20° C.) was “good nucleolar labeling, with only a slight increase in nuclear labeling. All mitochondrial labeling was removed. Cytoplasmic label increased slightly” and the “concentration of peak emission in detection of intracellular nucleic acid” value ([7]; FIG. 6) was 500 nM. The optimal labeling concentration ([7]; methanol-fixed cells) was “about 500 μM” and the staining pattern ([7]; methanol-fixed, Compound 11 5 μM, 1 μM or 500 nM, Compound 6 500 nM, 20 minutes) was “strong nucleolar and cytoplasmic labeling, with dimmer nuclear labeling, indicating selective RNA staining”.
C[n+]1c(/C=C/C=C2/C=CN(c3ccccc3)C(N3CCN(C4=C/C(=C\C=C\c5sc6ccccc6[n+]5C)C=CN4c4ccccc4)CC3)=C2)sc2ccccc21 [Compound 18] was tested, and the “Fluorescence Enhancement Ratio (RNA/DNA)” value [1] was 1.3.
